One may read the EC50 as the concentration giving half of the maximal effect.

Each structure is given as a SMILES string. Counter-ions that a name gives are not always drawn.

This is an account of results in US10011615B2, “Heterobicyclo-substituted [1,2,4]triazolo[1,5-c]quinazolin-5-amine compounds with A2A anatagonist properties” (Merck Sharp & Dohme Corp., priority 2012, dated 2018).

T1 sequence (P29274 whole entry): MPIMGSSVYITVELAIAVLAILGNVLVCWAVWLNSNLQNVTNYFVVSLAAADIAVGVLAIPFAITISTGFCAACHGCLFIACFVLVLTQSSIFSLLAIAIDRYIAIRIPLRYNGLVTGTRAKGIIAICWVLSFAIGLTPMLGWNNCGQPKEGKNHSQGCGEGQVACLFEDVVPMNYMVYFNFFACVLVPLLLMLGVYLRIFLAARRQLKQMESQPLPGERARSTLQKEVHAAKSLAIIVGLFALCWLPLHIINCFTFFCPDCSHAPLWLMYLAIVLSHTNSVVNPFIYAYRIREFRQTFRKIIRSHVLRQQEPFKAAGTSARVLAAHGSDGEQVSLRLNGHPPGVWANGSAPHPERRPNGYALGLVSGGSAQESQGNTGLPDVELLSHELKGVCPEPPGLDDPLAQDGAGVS

This assay concerns the target T1, human A2a receptor (Homo sapiens, UniProt P29274).
T1 construct: purchased Perkin-Elmer RBHA2AM400UA; host or cells: HEK293 cell membranes
Briefly: A2a receptor competition binding assay using Scintillation Proximity technology. Particulars: membranes from HEK293 cells expressing human A2a receptor; 0.5 nM tritiated radioligand; SPA beads; 1 h room temperature. Put shortly: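 Membranes of HEK293 cells expressing human A2a, pretreated with adenosine deaminase, incubated 1 h at room temperature with 0.5 nM tritiated pyrazolotriazolopyrimidine antagonist (final) and compound (3000 to 0.15 nM) on WGA SPA beads in Ca/Mg-free PBS with 10 mM MgCl2. Ki from EC50 via Cheng-Prusoff.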
A general note: In a scintillation proximity assay essentially only radioactivity close to the scintillant gives light.
As for `COc1cccc2c1nc(N)n1nc(CN3CCc4ccc(-c5ccccc5C(F)(F)F)cc4C3)nc21` [Ex-185, 7-methoxy-2-((7-(2-(trifluoromethyl)phenyl)-3,4-dihydroisoquinolin-2(1H)-yl)methyl)-[1,2,4]triazolo[1,5-c]quinazolin-5-amine], the EC50 came out at 11.2 nM.
With `COc1cccc2c1nc(N)n1nc(CN3CCc4ccc(-c5cnc(N)nc5C(F)(F)F)cc4C3)nc21` [Ex-186, 2-((7-(2-amino-4-(trifluoromethyl)pyrimidin-5-yl)-3,4-dihydroisoquinolin-2(1H)-yl)methyl)-7-methoxy-[1,2,4]triazolo[1,5-c]-quinazolin-5-amine], the midpoint of the response, the EC50, lay at 3.9 nM.
The compound `COc1cccc2c1nc(N)n1nc(CCN3CCc4ccc(-c5cnc(C(F)(F)F)nc5)cc4C3)nc21` [Ex-187, 7-methoxy-2-(2-(7-(2-(trifluoromethyl)pyrimidin-5-yl)-3,4-dihydroisoquinolin-2(1H)-yl)ethyl)-[1,2,4]triazolo[1,5-c]quinazolin-5-amine] registered an EC50 of 2.9 nM.
`Nc1nc2c(Br)cccc2c2nc(CN3CCc4cccnc4C3)nn12` [Ex-194]: the half-maximal effective concentration (EC50) was 8.8 nM.
For `Nc1nc2c(Br)cccc2c2nc(CN3Cc4cccnc4C3)nn12` [Ex-195], it took 16.6 nM to reach a half-maximal effect (EC50).
For the compound `N#Cc1cccc2c1nc(N)n1nc(CN3CCc4cccnc4C3)nc21` [Ex-196, 5-amino-2-((5,6-dihydro-1,7-naphthyridin-7(8H)-yl)methyl)[1,2,4]triazolo[1,5-c]quinazoline-7-carbonitrile], it took 274 nM to reach a half-maximal effect (EC50).
In turn, `N#Cc1cccc2c1nc(N)n1nc(CN3Cc4cccnc4C3)nc21` [Ex-197] registered a half-maximal effective concentration (EC50) of 612 nM.
For `COCc1cccc2c1nc(N)n1nc(CN3Cc4cccnc4C3)nc21` [Ex-198, 2-((5H-Pyrrolo[3,4-b]pyridin-6(7H)-yl)methyl)-7-(methoxymethyl)-[1,2,4]triazolo[1,5-c]quinazolin-5-amine], the midpoint of the response, the EC50, lay at 207 nM.
The compound `COCc1cccc2c1nc(N)n1nc(CN3CCc4cccnc4C3)nc21` [Ex-199] returned a concentration giving a half-maximal response (EC50) of 199 nM.
The compound `Cc1cccc2c1nc(N)n1nc(CN3Cc4cccnc4C3)nc21` [Ex-200, 2-((5H-pyrrolo[3,4-b]pyridine-6(7H)-yl)methyl)-7-methyl-[1,2,4]triazolo[1,5-c]quinazolin-5-amine] came in with a half-maximal effective concentration (EC50) of 35.5 nM.
As for `Cc1cccc2c1nc(N)n1nc(CN3CCc4cccnc4C3)nc21` [Ex-201], the EC50 was determined as 21.7 nM.
To `Nc1nc2c(OCCF)cccc2c2nc(CN3CCc4cccnc4C3)nn12` [Ex-202] belongs 147 nM.
Compound `CCOc1cccc2c1nc(N)n1nc(CN3Cc4cccnc4C3)nc21` [Ex-203, 2-((5H-pyrrolo[3,4-b]pyridin-6(7H)-yl)methyl)-7-ethoxy-[1,2,4]triazolo[1,5-c]quinazolin-5-amine] had a 50% effective concentration (EC50) of 88.3 nM.
Under `CCOc1cccc2c1nc(N)n1nc(CN3CCc4cccnc4C3)nc21` [Ex-204, 2-((5,6-dihydro-1,7-naphthyridin-7(8H)-yl)methyl)-7-ethoxy-[1,2,4]triazolo[1,5-c]quinazolin-5-amine] stands 40.7 nM; under `Nc1nc2c(OCF)cccc2c2nc(CN3CCc4cccnc4C3)nn12` [Ex-205, 2-((5,6-dihydro-1,7-naphthyridin-7(8H)-yl)methyl)-7-(fluoromethoxy)-[1,2,4]triazolo[1,5-c]quinazolin-5-amine], 10.9 nM; under `COc1cccc2c1nc(N)n1nc(C[C@@H](C)N3CCc4nc(C)oc4C3)nc21` [Ex-211, (R)-7-methoxy-2-(2-(2-methyl-6,7-dihydrooxazolo[5,4-c]pyridin-5(4H)-yl)propyl)-[1,2,4]triazolo[1,5-c]quinazolin-5-amine], 3 nM.
On to `COc1cccc2c1nc(N)n1nc(C[C@H](C)N3CCc4nc(C)oc4C3)nc21` [Ex-212, (S)-7-methoxy-2-(2-(2-methyl-6,7-dihydrooxazolo[5,4-c]pyridin-5(4H)-yl)propyl)-[1,2,4]triazolo[1,5-c]quinazolin-5-amine], for which the 50% effective concentration (EC50) worked out at 6.1 nM.
To `COc1cccc2c1nc(N)n1nc(C[C@@H](C)N3CCc4oc(C)nc4C3)nc21` [Ex-214, (R)-7-methoxy-2-(2-(2-methyl-6,7-dihydrooxazolo[4,5-c]pyridin-5(4H)-yl)propyl)-[1,2,4]triazolo[1,5-c]quinazolin-5-amine] belongs 29 nM.
`COc1cccc2c1nc(N)n1nc(C[C@H](C)N3CCc4oc(C)nc4C3)nc21` [Ex-215, (S)-7-methoxy-2-(2-(2-methyl-6,7-dihydrooxazolo[4,5-c]pyridin-5(4H)-yl)propyl)-[1,2,4]triazolo[1,5-c]quinazolin-5-amine] registered an EC50 of 5.7 nM.
Take `COc1cccc2c1nc(N)n1nc(C[C@@H](C)N3CCc4nc(C)sc4C3)nc21` [Ex-216, (R)-7-methoxy-2-(2-(2-methyl-6,7-dihydrothiazolo[5,4-c]pyridin-5(4H)-yl)propyl)-(1,2,4]triazolo[1,5-c]quinazolin-5-amine]: the midpoint of the response, the EC50, lay at 3 nM.
To `COc1cccc2c1nc(N)n1nc(C[C@@H](C)N3CCn4nc(C)cc4C3)nc21` [Ex-221, (R)-7-methoxy-2-(2-(2-methyl-6,7-dihydropyrazolo[1,5-a]pyrazin-5(4H)-yl)propyl)-[1,2,4]triazolo[1,5-c]quinazolin-5-amine] belongs 3.9 nM.
To `COc1cccc2c1nc(N)n1nc(CCCN3Cc4cccnc4C3)nc21` [Ex-227, 2-(3-(5H-pyrrolo[3,4-b]pyridin-6(7H)-yl)propyl)-7-methoxy-[1,2,4]triazolo[1,5-c]quinazolin-5-amine] belongs 7.7 nM.
Turning to `COc1cccc2c1nc(N)n1nc(CCCN3Cc4cccc(F)c4C3)nc21` [Ex-228, 2-(3-(4-fluoroisoindolin-2-yl)propyl)-7-methoxy-[1,2,4]triazolo[1,5-c]quinazolin-5-amine], a half-maximal effect (EC50) was put at 7.8 nM.
As for `COc1cccc2c1nc(N)n1nc(CCCN3Cc4ccc(F)cc4C3)nc21` [Ex-229], a half-maximal effect (EC50) was put at 14.8 nM.
With `COc1cccc2c1nc(N)n1nc(CCCN3Cc4ccc(C(F)(F)F)cc4C3)nc21` [Ex-230, 7-methoxy-2-(3-(5-(trifluoromethyl)isoindolin-2-yl)propyl)-[1,2,4]triazolo[1,5-c]quinazolin-5-amine], the EC50 worked out at 5.7 nM.
Turning to `COc1cccc2c1nc(N)n1nc(CCN3Cc4oc(C)nc4C(C)(C)C3)nc21` [Ex-235, 7-Methoxy-2-(2-(2,7,7-trimethyl-6,7-dihydro-oxazolo[5,4-c]pyridin-5(4H)-yl)ethyl)-[1,2,4]triazolo[1,5-c]quinazolin-5-amine, TFA], the concentration for a half-maximal effect (EC50) was determined as 2.8 nM.
The compound `COc1cccc2c1nc(N)n1nc(CCN3CCc4nc(C)oc4C3C)nc21` (stereo not drawn) [Ex-236, 2-(2-(2,4-dimethyl-6,7-dihydrooxazolo[5,4-c]pyridin-5(4H)-yl)ethyl)-7-methoxy-[1,2,4]triazolo[1,5-c]quinazolin-5-amine] came in with an EC50 of 1.4 nM.
`COc1cccc2c1nc(N)n1nc(CCN3Cc4oc(C)nc4CC3C)nc21` (stereo not drawn) [Ex-237, 2-(2-(2,6-dimethyl-6,7-dihydrooxazolo[5,4-c]pyridin-5(4H)-yl)ethyl)-7-methoxy-[1,2,4]triazolo[1,5-c]quinazolin-5-amine] showed an EC50 of 3.5 nM.
On to `COc1cccc2c1nc(N)n1nc(CCN3Cc4nc(C5CC5)sc4C3)nc21` [Ex-241, 2-(2-(2-cyclopropyl-4H-pyrrolo[3,4-d]thiazol-5(6H)-yl)ethyl)-7-methoxy-[1,2,4]triazolo[1,5-c]quinazolin-5-amine], for which it took 7.3 nM to reach a half-maximal effect (EC50).
The compound `COc1cccc2c1nc(N)n1nc(CCN3Cc4nc(C(C)C)sc4C3)nc21` [Ex-242, 2-(2-(2-isopropyl-4H-pyrrolo[3,4-d]thiazol-5(6H)-yl)ethyl)-7-methoxy-[1,2,4]triazolo[1,5-c]quinazolin-5-amine] showed an EC50 of 0.1 nM.
The compound `CCc1nc2c(s1)CN(CCc1nc3c4cccc(OC)c4nc(N)n3n1)C2` [Ex-243, 2-(2-(2-ethyl-4H-pyrrolo[3,4-d]thiazol-5(6H)-yl)ethyl)-7-methoxy-[1,2,4]triazolo[1,5-c]quinazolin-5-amine] had a concentration for a half-maximal effect (EC50) of 1.3 nM.
Turning to `COc1cccc2c1nc(N)n1nc(CCN3Cc4nc(C)oc4C3)nc21` [Ex-244, 7-methoxy-2-(2-(2-methyl-4H-pyrrolo[3,4-d]oxazol-5(6H)-yl)ethyl)-[1,2,4]triazolo[1,5-c]quinazolin-5-amine], the EC50 turned out to be 0.3 nM.
`COc1cccc2c1nc(N)n1nc(CCN3Cc4nc(C5CC5)oc4C3)nc21` [Ex-245] yielded an EC50 of 1 nM.
The compound `COc1cccc2c1nc(N)n1nc(CCN3Cc4cnn(C)c4C3)nc21` [Ex-246, 7-methoxy-2-(2-(1-methylpyrrolo[3,4-c]pyrazol-5(1H,4H,6H)-yl)ethyl)-[1,2,4]triazolo[1,5-c]quinazolin-5-amine] registered a concentration giving a half-maximal response (EC50) of 5.4 nM.
`COc1cccc2c1nc(N)n1nc(C[C@@H](C)N3Cc4nc(C)oc4C3)nc21` [Ex-247, (R)-7-methoxy-2-(2-(2-methyl-4H-pyrrolo[3,4-d]oxazol-5(6H)-yl)propyl)-[1,2,4]triazolo[1,5-c]quinazolin-5-amine]: a half-maximal effect (EC50) was put at 0.2 nM.
`CC[C@H](Cc1nc2c3cccc(OC)c3nc(N)n2n1)N1Cc2nc(C)oc2C1` [Ex-248, (R)-7-methoxy-2-(2-(2-methyl-4H-pyrrolo[3,4-d]oxazol-5(6H)-yl)butyl)-[1,2,4]triazolo[1,5-c]quinazolin-5-amine] gave a 50% effective concentration (EC50) of 1 nM.
